Measured values as given in article PMC5011342, “A high throughput drug screening assay to identify compounds that promote oligodendrocyte differentiation using acutely dissociated and purified oligodendrocyte precursor cells” (BMC Research Notes, 2016).
Where two headings read alike, the source gives them in different places.

How the values were obtained:
[1] = system: acutely dissociated and purified rat OPCs; test: Acute OL differentiation assay (MBP expression/cell, immunofluorescent image quantification); assay type: cell-based; details: Rattus norvegicus
Method: In order to identify compounds with the potential to promote OL differentiation in vivo and thereby enhance remyelination, we first wanted to establish an in vitro assay system that would closely mimic conditions in vivo. To do this, we started by using OPCs acutely isolated from postnatal day 6–7 (P6–7) rat brains by O4 immunopanning. […] OPCs were plated directly onto a biological substrate (PDL/laminin) in 96-well view plates at moderate density to allow for sufficient room to expand processes during differentiation. We plated cells in serum-free medium lacking OPC mitogens (no PDGF or FGF) to allow a basal level of OL differentiation to commence, and as a positive control added thyroid hormone (T3, 40 ng/ml) to accelerate differentiation (Fig. 1, flow scheme).
Fig. 1 Flow scheme of the acute OL differentiation assay. a Purified oligodendrocyte precursor cells (OPCs) were cultured from P7 rat cortex and plated into PDL/laminin pre-coated 96-well plates. b One hour later test compounds were added. c OPC cultures with compound were maintained in culture for an additional 4 days. d On the 5th day with compound, cells were fixed and immunostained with anti-MBP antibodies and DAPI. e Images were acquired with automated fluorescence microscopy and scored phenotypically for OL differentiation (see “Methods” section)
To quantify the extent of OL differentiation occurring in treatment conditions, we measured the overall amount of MBP expression/cell (see “Methods” section). Figure 2a depicts the mask created over MBP staining under which the MBP expression was quantified. […]
All animal work was carried out in strict accordance with the recommendations in the Guide for the Care and Use of Laboratory Animals of the National Institutes of Health. The protocol was approved by the Institutional Use and Care and Use Committee at the Molecular Medicine Research Institute (Sunnyvale, CA). Animals used for OPC isolation in these studies were euthanized by decapitation. OPCs from brains of P6-P7 Sprague–Dawley rat pups (Charles River, Wilmington, MA, USA) were enriched by immunopanning as previously described (Dugas et al. 2006). Briefly, single cell suspensions were obtained from papain-digested neonatal brains and depleted of mature glial cells by successive panning with RAN-2- and GalC-coated plates, followed by enrichment for OPCs using O4-coated plates. OPCs were plated in differentiation media (DMEM, 100 U/ml Penicillin/100 µg/ml streptomycin, 2 mM L-glutamine, 1 mM Na pyruvate, 5 µg/ml insulin, 5 µg/ml N-acetyl-L-cysteine, 1× trace elements B,10 ng/ml d-Biotin, 100 µg/ml BSA, 100 µg/ml apo-transferrin, 16 µg/ml putrescine, 60 ng/ml progesterone, 40 ng/ml sodium selenite 5 ng/ml forskolin, 10 ng/ml CNTF, 1 ng/ml NT-3).
Acutely enriched OPCs were plated in differentiation media at 5000 cells/well into PDL/laminin coated 96-well view plates and centrifuged at 200×g to facilitate cell attachment, survival, and even distribution of OPCs. OPCs were pre-incubated for 1–2 h at 37 °C in 10 % CO2, followed by the addition of test compounds in quadruplicate. Controls were added in eight replicate wells, negative control = 0.1 % DMSO; positive control = 40 ng/ml T3. The day of OPC plating was considered DIV0. On DIV4, cells were fixed, immunostained for myelin basic protein (MBP) expression, imaged and quantified as described below.

expanded OPCs = test: cells; details: for 0.1 µM (% DMSO) / 1 µM (% DMSO) / 10 µM (% DMSO): alamarBlue viability of expanded OPCs, relative to DMSO control; for 0.1 µM (% DMSO): compound at 0.1 µM; for 1 µM (% DMSO): compound at 1 µM; for 10 µM (% DMSO): compound at 10 µM; for viability at 0.1 µM / viability at 1 µM / viability at 10 µM: Rattus norvegicus, 72 h
Method: Having established a consistent assay for measuring OL differentiation in vitro, the next step was to utilize this assay to assess the ability of a wide array of compounds to promote OL differentiation. Prior to library screening, we first established the maximum non-toxic dose of each compound in the library. […] Therefore, we added each compound in the NIH clinical collection (NCC) library to OPCs at 10, 1, and 0.1 µM concentrations. Three days later, we assessed viability of the treated cells by measuring AlamarBlue fluorescence, a measure of cell viability (see “Methods” section). […] Appropriately, we established three sets of screening concentrations for library compounds: non-toxic compounds were tested at 10 and 2 µM, slightly toxic compounds (only toxic at 10 µM) were tested at 2 and 0.4 µM, and very toxic compounds were tested at 0.4 and 0.08 µM.
OPCs were expanded in vitro by seeding into PDL-coated tissue culture flasks at 1000–2000 cells/cm^2 in differentiation media supplemented with 10 ng/ml PDGF-AA. Proliferating OPCs were fed every 2–3 days and supplemented with 2–3× concentration of PDGF as needed to prevent OPC differentiation. After 6–7 days of proliferation, OPCs were harvested by trypsinization, plated into PDL-coated 96-well Falcon plates and centrifuged at 200×g to facilitate cell attachment, survival, and even distribution of cells. Expanded OPCs were seeded in differentiation media at 10,000 cells/well and incubated for 2 h at 37 °C, 10 % CO2 prior to addition of compounds. The NCC library was diluted and added to cells at 10, 1, and 0.1 µM; each concentration was tested in quadruplicate. As a positive control for the induction of toxicity, 5 ng/ml tunicamycin was added to 8 wells in each plate. Three days later, a 1:10 dilution of alamarBlue® (AB) was added to each well and cells were incubated 4 h at 37 °C, 10 % CO2. AB fluorescence was measured using a PerkinElmer Victor II fluorescence microplate reader (PerkinElmer, Waltham, MA) with 560 nm excitation/590 nm emission filters. For library screening, the highest concentration of each compound was adjusted to a minimally toxic concentration based on this toxicity data. Compounds were additionally tested at a second concentration that was 1/5th of the top concentration. The final concentration of DMSO in each well was 0.1 %.

[2] = test compound at 2 uM, NCC library screen, sheet "All OLga data", relative to quetiapine, read-out: 2 uM (% Quet)
[3] = test compound at 10 uM, NCC library screen, sheet "All OLga data", relative to quetiapine, read-out: 10 uM (% Quet)
[4] = test compound at 2 uM, MBP expression relative to quetiapine, NCC library screen, sheet "All OLga data", read-out: 2 uM (% Quet)
[5] = test compound at 10 uM, MBP expression relative to quetiapine, NCC library screen, sheet "All OLga data", read-out: 10 uM (% Quet)
[6] = 2 uM test compound, relative to quetiapine, sheet "All OLga data", read-out: OL differentiation, 2 uM (% Quet)
[7] = 10 uM test compound, relative to quetiapine, sheet "All OLga data", read-out: OL differentiation, 10 uM (% Quet)
[8] = read-out: 0.1 µM (% DMSO), alamarBlue viability of expanded OPCs, compound at 0.1 µM, sheet All Tox data
[9] = read-out: 1 µM (% DMSO), alamarBlue viability of expanded OPCs, compound at 1 µM, sheet All Tox data
[10] = read-out: 10 µM (% DMSO), alamarBlue viability of expanded OPCs, compound at 10 µM, sheet All Tox data

Row | SMILES | activation at 2 µM [1, 2] [%] | activation at 10 µM [1, 3] [%] | 0.1 µM (% DMSO) (expanded OPCs) | 1 µM (% DMSO) (expanded OPCs) | 10 µM (% DMSO) (expanded OPCs) | activation at 2 µM [1, 4] [%] | activation at 10 µM [1, 5] [%] | other results
1 | CC(=O)Nc1nnc(S(N)(=O)=O)s1 [Acetazolamide] | -8.7 | -43.8 | 89.2 | 90.6 | 87.5 |  |  | 
2 | CC(=O)OCC[N+](C)(C)C [Acetylcholine] |  |  | 87.6 | 92.6 | 87.0 | -4.4 | -7.7 | 
3 | COc1cc(C)c(/C=C/C(C)=C/C=C/C(C)=C/C(=O)O)c(C)c1C [Acitretin] |  |  | 101.2 | 141.3 | 148.0 | 68.7 | 51.4 | 
4 | CC(=O)Nc1ccc(CC(=O)O)cc1 [Actarit] |  |  |  |  |  |  |  | activation at 2 µM [1, 6]: 4.4%; activation at 10 µM [1, 7]: -11.3%; viability at 0.1 µM (expanded OPCs; [8]): 96.4%; viability at 1 µM (expanded OPCs; [9]): 104%; viability at 10 µM (expanded OPCs; [10]): 102%
5 | Nc1nc2c(ncn2COCCO)c(=O)[nH]1 [Acyclovir] |  |  | 98.2 | 90.8 | 91.7 | 21.2 | 4.3 | 
6 | Nc1ncnc2c1ncn2[C@@H]1O[C@H](CO)[C@@H](O)[C@H]1O [Adenosine] | 3.3 | -9.9 |  |  |  |  |  | viability at 0.1 µM (expanded OPCs; read-out: 0.1 µM (% DMSO), alamarBlue viability, NCC library compound at 0.1 µM, sheet "All Tox data"): 88.5%; viability at 1 µM (expanded OPCs; read-out: 1 µM (% DMSO), alamarBlue viability, NCC library compound at 1 µM, sheet "All Tox data"): 81.3%; viability at 10 µM (expanded OPCs; read-out: 10 µM (% DMSO), alamarBlue viability, NCC library compound at 10 µM, sheet "All Tox data"): 80.5%
7 | CCCSc1ccc2nc(NC(=O)OC)[nH]c2c1 [Albendazole] |  |  | 55.7 | 57.4 | 58.6 |  |  | activation at 0.4 µM ([1]; read-out: 0.4 uM (% Quet)): -27.1%; activation at 2 µM ([1]; read-out: 2 uM (% Quet)): -112%
8 | COc1cc2nc(N(C)CCCNC(=O)C3CCCO3)nc(N)c2cc1OC (stereo not drawn) [Alfuzosin] |  |  |  |  |  |  |  | activation at 2 µM [1, 6]: -11.1%; activation at 10 µM [1, 7]: -32.5%; viability at 0.1 µM (expanded OPCs; [8]): 90.1%; viability at 1 µM (expanded OPCs; [9]): 89.6%; viability at 10 µM (expanded OPCs; [10]): 86.6%
9 | Oc1ncnc2[nH]ncc12 [Allopurinol] | -5.6 | -5.5 | 83.9 | 89.7 | 89.6 |  |  | 
